Consider 6 compounds from patent US20240373851A1, “PEST CONTROL COMPOSITION AND PEST CONTROL METHOD” (SUMITOMO CHEMICAL COMPANY, LIMITED, priority 2021, published 2024).

What all share (type): in vivo
Data set [1] relates to German cockroaches (Blattella germanica). The data set can be described thus: Test Example 4: control test against German cockroaches, spray in chamber. The settings on record: adult German cockroaches; 1.5 mL sprayed; concentration [%]: nicofluprole 0.01, imiprothrin 0.01, deltamethrin 0.0002, alone or mixed; 45 minutes after spraying. Here is the method:
(§1) Next, the usefulness of the inventive composition for controlling pests will be indicated by Test Examples. In general, the control effect to be expected when treated with a mixture obtained by mixing given two or three types of active ingredient compounds is determined by the Colby's calculation equation represented by the following [Equation 1] and [Equation 2].
(§2) [formula] • P: moribund and mortal rates (%) when treated with an active ingredient compound X in the concentration of m [ppm] • Q: moribund and mortal rates (%) when treated with an active ingredient compound Y in the concentration of n [ppm] • EA: moribund and mortal rates (%) when treated with an active ingredient compound X in the concentration of m [ppm] and an active ingredient compound Y in the concentration of n [ppm] (hereinafter referred to as expected value A) […]
(§3) Regarding the synergistic effect of three types of the active ingredient compounds, in case where the moribund and mortal rates (%) when actually treated with a mixture obtained by mixing three types of the active ingredient compounds exceed the expected value A calculated by using the moribund and mortal rates (%) when actually treated with a mixture obtained by mixing two types of the active ingredient compounds among three types thereof, and the moribund and mortal rates (%) calculated when actually treated the remaining one type of the active ingredient compound, or the expected value B (%) calculated from the moribund and mortal rates (%) when actually treated with each of three types of the active ingredient compounds alone, it was determined that the synergistic effect exists. […]

Data set [2] shares this test system. The data set can be described thus: Test Example 8: control test against German cockroaches, spray in chamber. The settings on record: adult German cockroaches; 1.5 mL sprayed; concentration [%]: nicofluprole 0.01, imiprothrin 0.01, phenothrin 0.1, alone or mixed; 45 minutes after spraying. Here is the method:
as §1, §2, §3

The test system is the same in data set [3]. The data set can be described thus: Test Example 3: control test against German cockroaches, spray in chamber. As to conditions: adult German cockroaches; 1.5 mL sprayed; concentration [%]: broflanilide 0.02, imiprothrin 0.01, cyfluthrin 0.0016, alone or mixed; 420 minutes after spraying. The text has this: (§4) Next, the usefulness of the inventive composition for controlling pests will be indicated by Test Examples.
(§5) (hereinafter referred to as expected value A)
(§6) (hereinafter referred to as expected value B)
(§7) In a plastic cup (diameter: 12.4 cm, height: 10.2 cm) lined with a filter paper, ten adult German cockroaches (Blattella germanica) (five males and five females each) were released, and the plastic cup was placed in the center of the bottom of a box-shaped chamber (46 cm×46 cm×70 cm in height). From the height of 60 cm, 1.5 mL of each of formulations prepared by dissolving a single agent of any one of broflanilide, imiprothrin and cyfluthrin, or a mixed agent of two or more thereof in a mixture of isopropyl alcohol and Isopar M at a mixing ratio of 1:9 was sprayed under a spray pressure of 0.041 MPa. After a lapse of 420 minutes from spraying, the number of dead and moribund individuals was examined, and moribund and mortal rates (%) were determined by the above equation 3. The test was performed through two replicates. Dead individuals are completely immobile individuals, and moribund individuals are individuals who cannot get up when turned on their backs.

For data set [4] the test system is unchanged. The data set can be described thus: Test Example 5: control test against German cockroaches, spray in chamber. The settings on record: adult German cockroaches; 1.5 mL sprayed; concentration [%]: nicofluprole 0.01, imiprothrin 0.01, cyfluthrin 0.0002, alone or mixed; 45 minutes after spraying.
From the text: as §4, §5, §6
as §7, with “each) […]” for “each)”, “nicofluprole,” for “broflanilide,”, “45” for “420”

The test system is the same in data set [5]. The data set can be described thus: Test Example 9: control test against German cockroaches, spray in chamber. As to conditions: adult German cockroaches; 1.5 mL sprayed; concentration [%]: broflanilide 0.02, imiprothrin 0.01, permethrin 0.05, alone or mixed; 420 minutes after spraying.
From the text: as §4, §5, §6
as §7, with “permethrin,” for “cyfluthrin,”

Data set [6] shares this test system. The data set can be described thus: Test Example 1: control test against German cockroaches, spray in chamber (cup without filter paper). As to conditions: adult German cockroaches; 1.5 mL sprayed; concentration [%]: broflanilide 0.01, imiprothrin 0.01, cypermethrin 0.01, alone or mixed; 120 minutes after spraying. How it is done: as §1, §2
Regarding the synergistic effect of three types of the active ingredient compounds, in case where the moribund and mortal rates (%) when actually treated with a mixture obtained by mixing three types of the active ingredient compounds exceed the expected value A calculated by using the moribund and mortal rates (%) when actually treated with a mixture obtained by mixing two types of the active ingredient compounds among three types thereof, and the moribund and mortal rates (%) calculated when actually treated the remaining one type of the active ingredient compound, or the expected value B (%) calculated from the moribund and mortal rates (%) when actually treated with each of three types of the active ingredient compounds alone, it was determined that the synergistic effect exists.
In a plastic cup (diameter: 12.4 cm, height: 10.2 cm), ten adult German cockroaches (Blattella germanica) (five males and five females each) were released, and the plastic cup was placed in the center of the bottom of a box-shaped chamber (46 cm×46 cm×70 cm in height). […] After a lapse of 120 minutes from spraying, the number of dead and moribund individuals was examined, and moribund and mortal rates (%) were determined by the equation 3 below. […]

For data set [7] the test system is unchanged. The data set can be described thus: Test Example 6: control test against German cockroaches, spray in chamber. As to conditions: adult German cockroaches; 1.5 mL sprayed; concentration [%]: isocycloseram 0.05, imiprothrin 0.01, lambda-cyhalothrin 0.0025, alone or mixed; 60 minutes after spraying. How it is done: as §1, §2, §3
The test system is the same in data set [8]. The data set can be described thus: Test Example 2: control test against German cockroaches, spray in chamber. As to conditions: adult German cockroaches; 1.5 mL sprayed; concentration [%]: nicofluprole 0.01, imiprothrin 0.01, cypermethrin 0.01, alone or mixed; 120 minutes after spraying. How it is done: as §1, §2, §3
The test system is the same in data set [9]. The data set can be described thus: Test Example 7: control test against German cockroaches, spray in chamber. As to conditions: adult German cockroaches; 1.5 mL sprayed; concentration [%]: isocycloseram 0.05, imiprothrin 0.01, cypermethrin 0.01, alone or mixed; 120 minutes after spraying. Here is the method: as §1, §2, §3

Turning to `CC1(C)[C@H](C(=O)O[C@H](C#N)c2cccc(Oc3ccccc3)c2)[C@@H]1C=C(Br)Br` [Deltamethrin, deltamethrin], the “Moribund and mortal rates [%] after 45 minutes” value in data set [1] turned out to be 0%.

As to `CC(C)=CC1C(C(=O)OCc2cccc(Oc3ccccc3)c2)C1(C)C` (centres unmarked) [Phenothrin, phenothrin], in data set [2], the “Moribund and mortal rates [%] after 45 minutes” value came out at 5%.

`CC1(C)C(C=C(Cl)Cl)C1C(=O)OC(C#N)c1ccc(F)c(Oc2ccccc2)c1` (centres unmarked) [Cyfluthrin, cyfluthrin]: in data set [3], the “Moribund and mortal rates [%] after 420 minutes” value is reported as 0%. The “Moribund and mortal rates [%] after 45 minutes” value in data set [4] is 0%.

Take `CN(C(=O)c1ccccc1)c1cccc(C(=O)Nc2c(Br)cc(C(F)(C(F)(F)F)C(F)(F)F)cc2C(F)(F)F)c1F` [Broflanilide, broflanilide]: the “Moribund and mortal rates [%] after 420 minutes” value in data set [5] and in data set [3] was 70% in each case. The “Moribund and mortal rates [%] after 120 minutes” value in data set [6] is on record as 5%.

For the compound `CC1(C)[C@H](C(=O)O[C@H](C#N)c2cccc(Oc3ccccc3)c2)[C@@H]1/C=C(\Cl)C(F)(F)F` (racemic) [Lambda-cyhalothrin, lambda-cyhalothrin], the “Moribund and mortal rates [%] after 60 minutes” value in data set [7] worked out at 45%.

For `CC1(C)C(C=C(Cl)Cl)C1C(=O)OC(C#N)c1cccc(Oc2ccccc2)c1` (centres unmarked) [Cypermethrin, cypermethrin], the “Moribund and mortal rates [%] after 120 minutes” value in [8] is 15%; in [9], 50%; in data set [6], 45%.
